From patent US7384636B2, “Polypeptide” (Kabushiki Kaisha Hayashibara Seibutsu Kagaku Kenkyujo, priority 2003, dated 2008)

Experiments:
Type in all cases: in vivo
OMP [1] = assay: Titer against OMP, BALB/c mice immunized intranasally (Experiment 8); conditions: intranasal
Description: (§1) All the mice were bled after one week.
(§2) As a negative control, DUP was prepared.

the immunized peptide [2] = assay: Titer against the immunized peptide, BALB/c mice immunized intranasally (Experiment 8); conditions: intranasal
Description: as §1, §2

the immunized peptide [3] = assay: Titer against the immunized peptide, B10 mice immunized intranasally (Experiment 7); conditions: intranasal, with or without CT
Description: as §1, §2

OMP [4] = assay: Titer against OMP, B10 mice immunized intranasally (Experiment 7); conditions: intranasal, with or without CT
Description: as §1, §2

OMP [5] = assay: Titer against OMP, BALB/c mice immunized intraperitoneally (Experiment 5); conditions: intraperitoneal
Source text: as §1

[6] = test system: the immunized polypeptide; assay: Titer against the immunized peptide, BALB/c mice immunized intraperitoneally (Experiment 5); conditions: intraperitoneal
Source text: as §1

| Substance | Titer against the immunized peptide (the immunized peptide [2]) | Titer against the immunized peptide (the immunized peptide [3]) | Titer against OMP (OMP [4]) | other results |
| --- | --- | --- | --- | --- |
| OMP-KK-OVAp: SEQ ID NO:40, control, OMP linked by KK to OVA peptide fragment (LAVYWELLAKYLLDRVQKVAKKISQAVHAAHAEINE; OMP-KK-OVAp) | 1,589 | – | – | Titer against OMP (OMP [1]): 108 |
| OMP-KK-RGD-UP: SEQ ID NO:34, RGD at N-terminal side of UP (LAVYWELLAKYLLDRVQKVAKKRGDTYEAALKQYEADL; OMP-KK-RGD-UP) | – | 723 | 16 | – |
| OMP-KK-UP-RGD: SEQ ID NO:35, RGD at C-terminal side of UP (LAVYWELLAKYLLDRVQKVAKKTYEAALKQYEADLRGD; RGD-KK-UP-RGD) | – | 9,483 | 16 | – |
| OMP-KK-UP: SEQ ID NO:20, KK inserted between OMP and UP (LAVYWELLAKYLLDRVQKVAKKTYEAALKQYEADL; OMP-KK-UP) | – | 128 | 32 | Titer against OMP (OMP [5]): 1,731; Titer against the immunized peptide [6]: 782,685 |
| OMP-RGD-KK-UP: SEQ ID NO:33, RGD at C-terminal side of OMP (LAVYWELLAKYLLDRVQKVARGDKKTYEAALKQYEADL; OMP-RGD-KK-UP) | – | 24,370 | 16 | – |
| RGD-OMP-KK-UP: SEQ ID NO:32, RGD at N-terminal side of OMP in OMP-KK-UP (RGDLAVYWELLAKYLLDRVQKVAKKTYEAALKQYEADL; RGD-OMP-KK-UP) | – | 11,514 | 32 | – |
| T1-KK-UP: SEQ ID NO:41, control, T1 peptide of HIV IIIB gp120 linked by KK to UP (KQIINMWQAVGKAMYAKKTYEAALKQYEADL; T1-KK-UP) | 160 | – | – | – |
| T1-RGD-KK-UP: SEQ ID NO:39, T1 T cell epitope, RGD, KK linker, UP (KQIINMWQAVGKAMYARGDKKTYEAALKQYEADL; T1-RGD-KK-UP) | 1,707 | – | – | – |
| UP-KK-OMP: SEQ ID NO:21, KK inserted between UP and OMP (TYEAALKQYEADLKKLAVYWELLAKYLLDRVQKVA; UP-KK-OMP) | – | – | – | Titer against OMP (OMP [5]): 1,211; Titer against the immunized peptide [6]: 29,921 |
